# Results as given in US8207346B2, “Methods of synthesizing anatabine” (Rock Creek Pharmaceuticals, Inc., priority 2010, dated 2012).
# Columns and labels:
# [1] = Stability analysis of anatabine base with and without BHT as a preservative; assay type: physicochemical
# Procedure: See, for example, Tables 3 and 4 in Examples 4 and 5, respectively. Purity of the anatabine may be retained for extended periods of time. […] Further, anatabine remains stable when stored at a variety of temperatures. For example, the anatabine retains the indicated purity when stored at −20° C. to −10° C., −20° C. to 0° C., −10° C. to 0° C., 0° C. to 4° C., 2° C. to 8° C., 5° C. to 10° C., 10° C. to 15° C., 15° C. to 25° C., or 25° C. to 28° C. Stability is determined by any suitable art-recognized method. For example, anatabine stability may be monitored by high performance liquid chromatography (HPLC), liquid chromatography-mass spectroscopy (LC-MS), or nuclear magnetic resonance (NMR).
# Anatabine base stability was analyzed with and without BHT (3,5-di-tert-butyl-4-hydroxytoluene). The initial purity of BHT-free anatabine base was 94.95%. The initial purity of anatabine base with BHT was 94.87%.
# [2] = system: monoamine oxidase (MAO); conditions: known from Williams et al. U.S. Pat. No. 6,929,811; cited from earlier work
compound,measurement,setting,value
"C1=CCC(c2cccnc2)NC1 (stereo not shown) [anatabine base without BHT, Anatabine]",Purity (%),"[1]; day 1, storage temperature 2-8° C.",94.44%
same,Purity (%),"[1]; day 1, storage temperature 25-28° C.",89.63%
same,Purity (%),"[1]; day 1, storage temperature −20° C.",93.90%
same,Purity (%),"[1]; day 2, storage temperature 2-8° C.",94.05%
same,Purity (%),"[1]; day 2, storage temperature 25-28° C.",87.59%
same,Purity (%),"[1]; day 2, storage temperature −20° C.",94.62%
same,Purity (%),"[1]; day 3, storage temperature 2-8° C.",91.65%
same,Purity (%),"[1]; day 3, storage temperature 25-28° C.",80.74%
same,Purity (%),"[1]; day 3, storage temperature −20° C.",93.87%
same,Purity (%),"[1]; day 12, storage temperature 2-8° C.",90.12%
same,Purity (%),"[1]; day 12, storage temperature 25-28° C.",79.59%
same,Purity (%),"[1]; day 12, storage temperature −20° C.",94.01%
same,Inhibition of monoamine oxidase (MAO),[2],inhibit monoamine oxidase (MAO)
